Measurements from patent publication US10597391B2, “Urea-containing isoxazole derivatives as FXR agonists and methods of use thereof” (Enanta Pharmaceuticals, Inc., priority 2016, dated 2020).
Like-named read-outs stand apart in the source and are kept apart here.

Molecular target: T1, human FXR (NR1H4) (Homo sapiens, UniProt Q96RI1)
T1 sequence (Q96RI1 1-486): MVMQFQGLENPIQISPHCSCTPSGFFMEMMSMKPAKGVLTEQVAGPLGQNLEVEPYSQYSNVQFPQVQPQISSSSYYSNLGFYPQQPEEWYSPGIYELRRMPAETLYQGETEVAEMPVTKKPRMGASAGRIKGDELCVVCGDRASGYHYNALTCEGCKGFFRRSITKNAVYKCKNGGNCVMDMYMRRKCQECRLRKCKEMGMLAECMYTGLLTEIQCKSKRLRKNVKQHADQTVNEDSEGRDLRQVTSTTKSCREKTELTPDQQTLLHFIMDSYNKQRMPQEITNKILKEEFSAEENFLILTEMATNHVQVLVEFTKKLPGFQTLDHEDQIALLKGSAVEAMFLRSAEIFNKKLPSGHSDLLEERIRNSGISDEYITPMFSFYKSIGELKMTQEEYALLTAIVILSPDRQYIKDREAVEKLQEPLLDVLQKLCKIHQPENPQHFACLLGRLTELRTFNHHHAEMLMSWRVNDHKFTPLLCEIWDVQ
Experiment: Human FXR (NR1H4) Assay: Gal4 promoter driven luciferase reporter transactivation in CHO cells (Indigo Bioscience kit IB00601)
Type: cell-based
Details: for EC50: Human FXR (NR1H4) reporter assay in CHO cells; for Emax: CHO, read-out: Efficacy (%)
Source text: Human FXR (NR1H4) Assay Determination of a ligand mediated Gal4 promoter driven transactivation to quantify ligand binding mediated activation of FXR. FXR Reporter Assay kit purchased from Indigo Bioscience (Catalogue number: IB00601) to determine the potency and efficacy of compounds that can induce FXR activation. The principle application of this reporter assay system is to quantify functional activity of human FXR. The assay utilizes non-human mammalian cells, CHO (Chinese hamster ovary) cells engineered to express human NR1H4 protein (referred to as FXR). Reporter cells also incorporate the cDNA encoding beetle luciferase which catalyzes the substrates and yields photon emission. Luminescence intensity of the reaction is quantified using a plate-reading luminometer, Envision. Reporter Cells include the luciferase reporter gene functionally linked to an FXR responsive promoter. Thus, quantifying changes in luciferase expression in the treated reporter cells provides a sensitive surrogate measure of the changes in FXR activity. […] The assay is according to the manufacturer's instructions. […] Retrieve Reporter Cells from −80° C. storage. Perform a rapid thaw of the frozen cells by transferring a 10 ml volume of 37° C. cell recovery medium into the tube of frozen cells. […] Retrieve the tube of Reporter Cell Suspension from the water bath. […] Dispense 90 μl of cell suspension into each well of the 96-well Assay Plate. Transfer the plate into 37° C. incubator, allowing the cells adherent to the bottom of the well. Dilute compounds in Dilution Plate (DP), and administrate to cells at Assay Plate (AP). […] Cells were incubated for additional 22 hours before luciferase activities were measured. Thirty minutes before intending to quantify FXR activity, remove Detection Substrate and Detection Buffer from the refrigerator and place them in a low-light area so that they may equilibrate to room temperature. Remove the plate's lid and discard all media contents by ejecting it into an appropriate waste container. Gently tap the inverted plate onto a clean absorbent paper towel to remove residual droplets. Cells will remain tightly adhered to well bottoms. Add 100 μl of luciferase detection reagent to each well of the assay plate. Allow the assay plate to rest at room temperature for at least 5 minutes following the addition of LDR. Set the instrument (Envision) to perform a single 5 second “plate shake” prior to reading the first assay well. Read time may be 0.5 second (500 mSec) per well.

[1] = efficacy normalized to CDCA set as 100%

Row | Compound | EC50 (potency range, read-out: EC50) [µM] | Emax [1] [%] | Emax [%] | EC50 (EC50, potency range) [µM]
1 | O=C(N[C@H]1CC[C@H](C(=O)O)CC1)N1C2CCC1CC(OCc1c(-c3ccccc3OC(F)(F)F)noc1C1CC1)C2 (stereo partly shown) [Example 266] | 0.1 to 1 | – | – | –
2 | O=C(NCc1cccc(C(F)(F)F)c1)N1C2CCC1CC(OCc1c(-c3c(Cl)cccc3Cl)noc1C1CC1)C2 (stereo not shown) [Example 734] | 0.01 to 0.1 | 172 | – | –
3 | COC(=O)c1ccc2c(c1)CN(C(=O)N1C3CCC1CC(OCc1c(-c4ccccc4OC(F)(F)F)noc1C1CC1)C3)C2 (stereo not shown) [Example 597] | – | – | 53 | 0.1 to 1
4 | Cn1cc(-c2cccc(NC(=O)N3C4CCC3CC(OCc3c(-c5c(Cl)cccc5Cl)noc3C3CC3)C4)c2)cn1 (stereo not shown) [Example 13] | < 0.01 | – | – | –
5 | O=C(Nc1cccc(C(F)(F)F)c1)N1C2CCC1CC(NCc1c(-c3ccccc3OC(F)(F)F)noc1C1CC1)C2 (stereo not shown) [Example 121] | 0.01 to 0.1 | – | – | –
6 | O=C(O)c1ccc(NC(=O)N2C3CCC2CC(OCc2c(C4CCC5(CC4)CC5)noc2C2CC2)C3)c(F)c1 (stereo not shown) [Example 285] | 0.01 to 0.1 | – | – | –
7 | CC(C)(C)c1ccc(S(=O)(=O)NC(=O)c2cccc(NC(=O)N3C4CCC3CC(OCc3c(-c5c(Cl)cccc5Cl)noc3C3CC3)C4)c2)cc1 (stereo not shown) [Example 217] | > 1 | – | – | –
8 | O=C(Nc1cccc(C2CCCCC2)c1)N1C2CCC1CC(OCc1c(-c3c(Cl)cccc3Cl)noc1C1CC1)C2 (stereo not shown) [Example 712] | 0.01 to 0.1 | 144 | – | –
9 | COC(=O)c1ccc(OC)c(NC(=O)N2C3CCC2CC(OCc2c(-c4c(Cl)cccc4Cl)noc2C2CC2)C3)c1 (stereo not shown) [Example 724] | 0.01 to 0.1 | 137 | – | –
10 | O=C(NCc1cccc(-c2ccccc2)c1)N1C2CCC1CC(OCc1c(-c3c(Cl)cccc3Cl)noc1C1CC1)C2 (stereo not shown) [Example 735] | 0.1 to 1 | 136 | – | –
11 | O=C(O)c1ccc(F)c(NC(=O)N2C3CCC2CC(OCc2c(-c4ccccc4OC(F)(F)F)noc2C2CC2)C3)c1 (stereo not shown) [Example 748] | 0.01 to 0.1 | 103 | – | –
12 | N#Cc1cc(F)cc(NC(=O)N2C3CCC2CC(OCc2c(-c4c(Cl)cccc4Cl)noc2C2CC2)C3)c1 (stereo not shown) [Example 704] | < 0.01 | 157 | – | –
13 | O=C(Nc1cnc2ccccc2c1)N1C2CCC1CC(OCc1c(-c3c(Cl)cccc3Cl)noc1C1CC1)C2 (stereo not shown) [Example 21] | 0.01 to 0.1 | – | – | –
14 | O=C(O)c1ccc(NC(=O)N2C3CCC2CC(OCc2c(-c4ccccc4C(F)(F)F)noc2C2CC2)C3)c(F)c1 (stereo not shown) [Example 807] | 0.01 to 0.1 | 42 | – | –
15 | CN1CCC(c2cccc(NC(=O)N3C4CCC3CC(OCc3c(-c5c(Cl)cccc5Cl)noc3C3CC3)C4)c2)CC1 (stereo not shown) [Example 5] | 0.01 to 0.1 | – | – | –
16 | O=C(NS(=O)(=O)c1ccccc1)c1ccc(NC(=O)N2C3CCC2CC(OCc2c(-c4ccccc4OC(F)(F)F)noc2C2CC2)C3)cc1 (stereo not shown) [Example 756] | 0.1 to 1 | 205 | – | –
17 | O=C(Nc1ccccn1)N1C2CCC1CC(OCc1c(-c3c(Cl)cccc3Cl)noc1C1CC1)C2 (stereo not shown) [Example 16] | 0.1 to 1 | – | – | –
18 | CC(C)S(=O)(=O)NC(=O)c1cccc(NC(=O)N2C3CCC2CC(OCc2c(-c4ccccc4OC(F)(F)F)noc2C2CC2)C3)c1 (stereo not shown) [Example 758] | 0.1 to 1 | 233 | – | –
19 | COC(=O)c1ccc(NC(=O)N2C3CCC2CC(OCc2c(-c4c(Cl)cccc4Cl)noc2C2CC2)C3)c(F)c1-c1ccccc1 (stereo not shown) [Example 795] | 0.01 to 0.1 | 44 | – | –
20 | O=C(NCc1ccc(F)cc1)N1C2CCC1CC(OCc1c(-c3c(Cl)cccc3Cl)noc1C1CC1)C2 (stereo not shown) [Example 732] | < 0.01 | 180 | – | –
21 | COc1ccc(C(=O)O)cc1NC(=O)N1C2CCC1CC(OCc1c(-c3c(Cl)cccc3Cl)noc1C1CC1)C2 (stereo not shown) [Example 725] | 0.1 to 1 | 140 | – | –
22 | CN(C)S(=O)(=O)NC(=O)c1ccc(NC(=O)N2C3CCC2CC(OCc2c(-c4ccccc4OC(F)(F)F)noc2C2CC2)C3)cc1 (stereo not shown) [Example 753] | 0.01 to 0.1 | 217 | – | –
23 | O=C(O)c1cnc2cc(NC(=O)N3C4CCC3CC(OCc3c(-c5c(Cl)cccc5Cl)noc3C3CC3)C4)ccc2c1 (stereo not shown) [Example 779] | 0.01 to 0.1 | 50 | – | –

Row | Compound | EC50 (potency range, read-out: EC50) [µM] | Emax [1] [%] | Emax [%] | EC50 (EC50, potency range) [µM]
24 | O=C(O)c1ccc(NC(=O)N2C3CCC2CC(OCc2c(-c4c(Cl)cccc4Cl)noc2C2CC2)C3)c(C(F)(F)F)c1 (stereo not shown) [Example 710] | 0.01 to 0.1 | 170 | – | –
25 | O=C(O)c1ccc(NC(=O)N2C3CCC2CC(OCc2c(-c4ccccc4C4CC4)noc2C2CC2)C3)cc1-c1ccccc1 (stereo not shown) [Example 814] | 0.01 to 0.1 | 112 | – | –
26 | COC(=O)c1ccc(NC(=O)N2C3CCC2CC(OCc2c(-c4ccccc4OC(F)(F)F)noc2C2CC2)C3)nc1 (stereo not shown) [Example 764] | 0.1 to 1 | 230 | – | –
27 | O=C(O)c1ccc(NC(=O)N2C3CCC2CC(OCc2c(-c4c(Cl)cccc4Cl)noc2C2CC2)C3)c(OC(F)(F)F)c1 (stereo not shown) [Example 717] | 0.1 to 1 | 149 | – | –
28 | O=C(Nc1ccccc1)N1C2CCC1CC(OCc1c(-c3c(Cl)cccc3Cl)noc1C1CC1)C2 (stereo not shown) [Example 696] | < 0.01 | 246 | – | –
29 | CC(C)(C)c1ccc(NC(=O)N2C3CCC2CC(OCc2c(-c4c(Cl)cccc4Cl)noc2C2CC2)C3)cc1 (stereo not shown) [Example 697] | 0.1 to 1 | 174 | – | –
30 | CN(C)S(=O)(=O)NC(=O)c1cccc(NC(=O)N2C3CCC2CC(OCc2c(-c4ccccc4OC(F)(F)F)noc2C2CC2)C3)c1 (stereo not shown) [Example 265] | 0.1 to 1 | – | – | –
31 | COC(=O)c1ccc2c(c1)N(C(=O)N1C3CCC1CC(OCc1c(-c4ccccc4OC(F)(F)F)noc1C1CC1)C3)CC2 (stereo not shown) [Example 589] | > 1 | – | 76 | –
32 | C[C@H](NC(=O)N1C2CCC1CC(OCc1c(-c3c(Cl)cccc3Cl)noc1C1CC1)C2)c1ccccc1 (stereo partly shown) [Example 705] | < 0.01 | 242 | – | –
33 | O=C(O)c1ccccc1NC(=O)N1C2CCC1CC(OCc1c(-c3ccccc3OC(F)(F)F)noc1C1CC1)C2 (stereo not shown) [Example 744] | > 1 | 165 | – | –
34 | O=C(Nc1cccc(C2=CCCCC2)c1)N1C2CCC1CC(OCc1c(-c3c(Cl)cccc3Cl)noc1C1CC1)C2 (stereo not shown) [Example 711] | < 0.01 | 157 | – | –
35 | O=C(O)c1cccc(NC(=O)N2C3CCC2CC(OCc2c(-c4ccccc4OC(F)(F)F)noc2C2CC2)C3)c1 (stereo not shown) [Example 229] | 0.1 to 1 | – | – | –
36 | O=C(O)c1ccc(NC(=O)N2C3CCC2CC(OCc2c(-c4c(F)cccc4F)noc2C2CC2)C3)c(C(F)(F)F)c1 (stereo not shown) [Example 818] | 0.01 to 0.1 | 25 | – | –
37 | O=C(O)c1cccnc1NC(=O)N1C2CCC1CC(OCc1c(-c3ccccc3OC(F)(F)F)noc1C1CC1)C2 (stereo not shown) [Example 772] | > 1 | 31 | – | –
38 | O=C(O)CNC(=O)c1ccc(NC(=O)N2C3CCC2CC(OCc2c(-c4c(Cl)cccc4Cl)noc2C2CC2)C3)c(F)c1 (stereo not shown) [Example 783] | 0.1 to 1 | 0 | – | –
39 | O=C(O)c1ccc(NC(=O)N2C3CCC2CC(OCc2c(-c4ccccc4C4CC4)noc2C2CC2)C3)c(C(F)(F)F)c1 (stereo not shown) [Example 820] | 0.01 to 0.1 | 13 | – | –
40 | COC(=O)c1ccc(OC)c(NC(=O)N2C3CCC2CC(OCc2c(-c4ccccc4OC(F)(F)F)noc2C2CC2)C3)c1 (stereo not shown) [Example 749] | 0.01 to 0.1 | 104 | – | –
41 | O=C(O)c1ccc(NC(=O)N2C3CCC2CC(OCc2c(-c4ccccc4OC(F)(F)F)noc2C2CC2)C3)c(F)c1 (stereo not shown) [Example 239] | 0.01 to 0.1 | – | – | –
42 | O=C(O)c1ccc(NC(=O)N2C3CCC2CC(OCc2c(-c4ccccc4OC(F)(F)F)noc2C2CC2)C3)cc1OC(F)(F)F (stereo not shown) [Example 822] | < 0.01 | 76 | – | –
43 | CC(C)S(=O)(=O)NC(=O)c1ccc(NC(=O)N2C3CCC2CC(OCc2c(-c4ccccc4OC(F)(F)F)noc2C2CC2)C3)cc1 (stereo not shown) [Example 754] | 0.1 to 1 | 236 | – | –
44 | CS(=O)(=O)NC(=O)c1ccc(NC(=O)N2C3CCC2CC(OCc2c(-c4ccccc4OC(F)(F)F)noc2C2CC2)C3)cc1 (stereo not shown) [Example 752] | > 1 | 239 | – | –
45 | O=C(NCc1ccc(-c2ccccc2)cc1)N1C2CCC1CC(OCc1c(-c3c(Cl)cccc3Cl)noc1C1CC1)C2 (stereo not shown) [Example 738] | 0.1 to 1 | 139 | – | –
